Values of other authors, collected in patent US7041676B2, “Compounds, compositions, and methods” (Cytokinetics, Inc., priority 2002, dated 2006).

system: A549 cells; conditions: data provided by National Cancer Institute, Developmental Therapeutic Program

Row | Structure (SMILES) | GI50 [µM]
1 | O=c1[nH]cc(F)c(=O)[nH]1 [5-fluorouracil] | 1
2 | COc1cccc2c1C(=O)c1c(O)c3c(c(O)c1C2=O)C[C@@](O)(C(=O)CO)C[C@@H]3O[C@H]1C[C@H](N)[C@H](O)[C@H](C)O1 [doxorubicin] | 0.063
3 | NC(=O)NO [hydroxyurea] | 500
4 | CC(=O)O[C@H]1C(=O)[C@@]2(C)[C@H]([C@H](OC(=O)c3ccccc3)[C@]3(O)C[C@H](OC(=O)[C@H](O)[C@@H](NC(=O)c4ccccc4)c4ccccc4)C(C)=C1C3(C)C)[C@]1(OC(C)=O)CO[C@@H]1C[C@@H]2O [paclitaxel] | 0.004
